Source: article PMC9495972, “Dissecting the Activity of Catechins as Incomplete Aldose Reductase Differential Inhibitors through Kinetic and Computational Approaches” (Biology, 2022)
Entries after “also recorded” stand apart in the source; their conditions may differ. Blank lines part the entries; values can stand above or below the molecule they belong to.

Assays:
human recombinant AKR1B1 [1] = molecular target: T1, human recombinant AKR1B1 (Homo sapiens, UniProt P15121); experiment: AKR1B1 activity inhibition, decrease in absorbance at 340 nm linked to NADPH oxidation; assay type: biochemical; details: for remaining activity at 800 µM: in the presence of 0.8 mM compound, read-out: residual activity; for IC50: 10 mU AKR1B1, 37 °C, pH 6.8, 95% CLs in text
T1 construct: made in house
Description: (§1) The AKR1B1 activity was determined at 37 °C, as previously described, monitoring the decrease in absorbance at 340 nm linked to NADPH oxidation (ε340 = 6.22 mM^−1·cm^−1) using a Biochrom Libra S60 spectrophotometer. The standard assay mixture (0.7 mL) contained 0.25 M sodium phosphate buffer pH 6.8, 0.18 mM NADPH, 0.4 M ammonium sulfate, 0.5 mM EDTA, and 4.7 mM GAL. One unit of enzyme activity is the amount of enzyme that catalyzes the conversion of 1 µmol of substrate/min in the above assay conditions.
IC50 values were determined by non-linear regression analysis using GraphPad Prism version 7.04 (GraphPad Software, San Diego, CA, USA). Values were obtained from at least six different inhibitors concentrations (each assayed at least in triplicate) and are reported with their 95% Confidence Limits (CLs). […] The final concentration of ethanol in the assay was never higher than 1%. […] The percentage of inhibition was calculated referring to an assay performed using the same solvent concentration in the absence of inhibitors.
(§2) The human recombinant AKR1B1 was expressed and purified to electrophoretic homogeneity, as previously described. […] The purified enzyme was stored at −80 °C in a 10 mM sodium phosphate buffer pH 7.0 containing 2 mM DTT and 30% (w/v) glycerol. Before use, AKR1B1 was extensively dialyzed against 10 mM sodium phosphate buffer pH 7.0.

human recombinant AKR1B1 [2] = molecular target: T1, human recombinant AKR1B1; experiment: Inhibition kinetic analysis of AKR1B1-dependent reduction of L-idose, HNE and GSHNE; assay type: biochemical; details: for k+4: kinetic constant of ternary complex EIS to products; for Km: in the absence of inhibitors, read-out: KM of the substrate; for Km / kcat (k+2) of the substrate: at least 20 independent experiments; for kcat (k+2) of the substrate: in the absence of the inhibitor
Description: as §1, §2
The kinetic parameters ^appkcat and ^appKM were evaluated by non-linear regression analysis of rate measurements vs. substrate concentration according to Michaelis-Menten equation. The analysis was performed through GraphPad Prism 7.04 software by a non-linear “Robust Regression” analysis in which each point is individually weighted through iterative weighing of the smallest squares. The same approach was adopted to analyze the dependence of ^appkcat, ^appKM, and ^appKM/^appkcat from the concentration of the inhibitors [I], making use of previously derived equations [27] (see text).
The hyperbolic kinetic equation for an incomplete mixed type of inhibition analyzed with both branches of product formation at the steady state and with the inhibitor binding at equilibrium, was defined using the apparent kinetic parameters ^appKM and ^appkcat (Equations (1)–(3), see ref [27] for further details). (1) kappcat=Ki*k+2+k+4[I]/Ki*+[I] (2) appKM=KMKi*+(Ki*/KiKM+k+4/k+1)[I]+k+4/Kik+1[I]^2/Ki*+[I] (3) appKM/appkcat= KMKi*+(Ki*/KiKM+k+4/k+1)[I]+k+4/Kik+1[I]^2/Ki*k+2+k+4[I]
Thus, ^appkcat and ^appKM values emerging from non-linear regression analysis of primary data (Figure 3) were analyzed through non-linear regression using Equations (1) and (2), respectively. […] The above starting values of kcat and KM derived from at least 20 independent experiments in which kinetic parameters were measured in the absence of inhibitors. […] The k+4 values are reported in Table 1 as the average of values emerging from ^appKM/^appkcat versus [I] (Equation (3) or Equation (4)) and 1/^appkcat versus [I] (Equation (1)) plots.

AKR1B1 = details: cited from earlier work
human AKR1B1 [3] = system: human AKR1B1; set-up: method as in PMID 32640594; details: in the absence of GCG; cited from earlier work
human AKR1B1 [4] = experiment: Docking, MD simulations and MM-PBSA binding free energy evaluations
Description: The X-ray structure of human AKR1B1 in complex with D-glyceraldehyde and the NADP cofactor (PDB code 3V36), as well as the co-crystal structure of human AKR1B1 in complex with a nitrofuryl-oxadiazol inhibitor (PDB code 2IKH), were downloaded from the Protein Data Bank. Molecular docking calculations were performed with GOLD 5.1 (CCDC Software Ltd., Cambridge, UK) with the Piecewise Linear Potential (PLP) fitness function; both the two X-ray structures and the previously predicted protein–substrate complexes (i.e., AKR1B1-L-idose, AKR1B1-HNE, and AKR1B1-GSHNE) were employed as the protein. […] When protein–substrate complexes were used as the receptor, the ten top-scored clusters of solutions in which the ligand formed at least one H-bond with the substrate were selected as the best clusters of solutions, which were considered for further analyses.
Molecular dynamics (MD) simulations were performed with AMBER 20 [32] using the ff14SB force field. General Amber force field (GAFF) parameters were used for the ligands, the substrates, and the cofactor, whose partial charges were calculated with the AM1-BCC method as implemented in the Antechamber suite of AMBER 20 (University of California, San Francisco, CA, USA). […] Each analyzed complex was placed in a rectangular parallelepiped water box, using the TIP3P explicit solvent model for water, and solvated with a 15 Å water cap. […]

[5] = GSHNE reduction, calculated using k+2 109 ± 8 min^−1
[6] = HNE reduction, calculated using k+2 78 ± 4 min^−1
[7] = L-idose reduction, calculated using k+2 195 ± 6 min^−1

- remaining activity at 800 µM (human recombinant AKR1B1 [1]): ~70%
Molecule: Oc1cc(O)c2c(c1)O[C@H](c1ccc(O)c(O)c1)[C@H](O)C2 [EC, epicatechin]

Molecule: O=C(O[C@@H]1Cc2c(O)cc(O)cc2O[C@@H]1c1ccc(O)c(O)c1)c1cc(O)c(O)c(O)c1 [ECG, epicatechin gallate]
- IC50 (human recombinant AKR1B1 [1]; IC50 for GSHNE reduction, […] GSHNE as substrate): 143 µM
- IC50 (human recombinant AKR1B1 [1]; IC50 for HNE reduction, 0.03 mM HNE as substrate): 257 µM
- IC50 (human recombinant AKR1B1 [1]; IC50 for the reduction of L-idose, 8 mM L-idose as substrate): 67 µM
- Ki/Ki* (human recombinant AKR1B1 [2]; GSHNE reduction): approximately 2
- inhibition type (human recombinant AKR1B1 [2]; GSHNE reduction): mixed inhibition type
- k+4/k+2 (%) (human recombinant AKR1B1 [2]; [5]): 14.3 ± 3.9%
- k+4 (human recombinant AKR1B1 [2]; GSHNE reduction): 15.6 ± 4.3 min⁻¹
- k+4/k+2 (%) (human recombinant AKR1B1 [2]; [6]): 8.6 ± 0.4%
- k+4 (human recombinant AKR1B1 [2]; HNE reduction): 6.7 ± 2.7 min⁻¹
- Ki (human recombinant AKR1B1 [2]; Ki*, GSHNE reduction, apparent dissociation constant of ternary complex EIS): 46 ± 11 µM
- Ki (human recombinant AKR1B1 [2]; Ki*, HNE reduction, apparent dissociation constant of ternary complex EIS): 54 ± 9 µM
- Ki (human recombinant AKR1B1 [2]; Ki*, L-idose reduction, apparent dissociation constant of ternary complex EIS): 46 ± 5 µM
- Ki (human recombinant AKR1B1 [2]; Ki, GSHNE reduction, dissociation constant of enzyme-inhibitor complex): 91 ± 10 µM
- Ki (human recombinant AKR1B1 [2]; Ki, HNE reduction, dissociation constant of enzyme-inhibitor complex): > 10000 µM
- Ki (human recombinant AKR1B1 [2]; Ki, L-idose reduction, dissociation constant of enzyme-inhibitor complex): 116 ± 8 µM
- inhibition type (human recombinant AKR1B1 [2]; L-idose reduction): mixed inhibition type
- k+4/k+2 (%) (human recombinant AKR1B1 [2]; [7]): 2.7 ± 1.7%
- k+4 (human recombinant AKR1B1 [2]; L-idose reduction): 5.2 ± 3.2 min⁻¹

Molecule: Oc1cc(O)c2c(c1)O[C@H](c1cc(O)c(O)c(O)c1)[C@H](O)C2 [EGC, epigallocatechin]
- inhibitory action on AKR1B1 (in words) (AKR1B1): inhibits AKR1B1 irrespective of the used substrate

Molecule: O=C(O[C@@H]1Cc2c(O)cc(O)cc2O[C@@H]1c1cc(O)c(O)c(O)c1)c1cc(O)c(O)c(O)c1 [EGCG, epigallocatechin gallate]
- inhibitory action on AKR1B1 (in words) (AKR1B1): preserved only HNE reduction; also recorded: act as ARDIs, even though not complete

Molecule: O=C(O)c1cc(O)c(O)c(O)c1 [GA, gallic acid]
- inhibitory action on AKR1B1 (in words) (AKR1B1): act as ARDIs, even though not complete

Molecule: Oc1cc(O)c2c(c1)O[C@H](c1cc(O)c(O)c(O)c1)[C@@H](O)C2 [GC, gallocatechin]
- remaining activity at 800 µM (human recombinant AKR1B1 [1]): ~70%

- inhibition type (human recombinant AKR1B1 [2]; GSHNE reduction): uncompetitive inhibition
- k+4 (human recombinant AKR1B1 [2]; GSHNE reduction): 6.0 ± 1.0 min⁻¹
- k+4/k+2 (%) (human recombinant AKR1B1 [2]; [6]): 12.2 ± 1.1%
- k+4 (human recombinant AKR1B1 [2]; HNE reduction): 9.5 ± 0.9 min⁻¹
- inhibition type (human recombinant AKR1B1 [2]; L-idose reduction): mixed inhibition type
- k+4/k+2 (%) (human recombinant AKR1B1 [2]; [7]): 2.9 ± 0.25%
- k+4 (human recombinant AKR1B1 [2]; L-idose reduction): 5.6 ± 0.5 min⁻¹
Molecule: O=C(O[C@@H]1Cc2c(O)cc(O)cc2O[C@H]1c1cc(O)c(O)c(O)c1)c1cc(O)c(O)c(O)c1 [GCG, gallocatechin gallate]

- Km (human recombinant AKR1B1 [2]): 120 ± 16 µM
- kcat (k+2) of the substrate (human recombinant AKR1B1 [2]): 1.82 ± 0.13 s⁻¹
Molecule: CCCCCC(O)C(CC=O)SC[C@H](NC(=O)CC[C@H](N)C(=O)O)C(=O)NCC(=O)O (some centres unmarked) [GSHNE, 3-glutathionyl-4-hydroxynonanal adduct]
- binding affinity estimated for the substrate bound to AKR1B1 (human AKR1B1 [3]): -30.3 kcal/mol

- Km (human recombinant AKR1B1 [2]): 51 ± 5 µM
- kcat (k+2) of the substrate (human recombinant AKR1B1 [2]): 1.3 ± 0.067 s⁻¹
Molecule: CCCCCC(O)/C=C/C=O (centres unmarked) [HNE, 4-hydroxynonenal]
- binding affinity estimated for the substrate bound to AKR1B1 (human AKR1B1 [3]): -18.6 kcal/mol

Molecule: O=C[C@H](O)[C@@H](O)[C@H](O)[C@@H](O)CO [L-idose]
- Km (human recombinant AKR1B1 [2]): 4260 ± 300 µM
- kcat (k+2) of the substrate (human recombinant AKR1B1 [2]): 3.25 ± 0.1 s⁻¹
- increase in the binding affinity of the substrate for the complex (human AKR1B1 [4]; due to the presence of GCG): 32%
- lowering of substrate binding free energy with GCG versus without (human AKR1B1 [4]; presence versus absence of GCG): 5.5 kcal/mol
- binding affinity estimated for the substrate bound to AKR1B1 (human AKR1B1 [3]): -17.4 kcal/mol

Molecule: C[C@@H]1O[C@@H](O[C@H]2[C@H](O[C@H]3[C@H](O[C@H]4CC[C@@]5(C)[C@@H](CC[C@]6(C)[C@@H]5CC=C5[C@@H]7CC(C)(C)C[C@@H](O)[C@]7(C)CC[C@]56C)[C@@]4(C)CO)O[C@H](C(=O)O)[C@@H](O)[C@@H]3O)O[C@H](CO)[C@H](O)[C@@H]2O)[C@H](O)[C@H](O)[C@H]1O [soyasaponin Bb]
- inhibitory action on AKR1B1 (in words) (AKR1B1): acting as ARDI

Molecule: catechin gallate [CG]
- inhibition type (human recombinant AKR1B1 [2]; GSHNE reduction): uncompetitive inhibition
- k+4/k+2 (%) (human recombinant AKR1B1 [2]; [5]): 3.8 ± 0.8%
- k+4 (human recombinant AKR1B1 [2]; GSHNE reduction): 4.1 ± 0.8 min⁻¹
- k+4/k+2 (%) (human recombinant AKR1B1 [2]; [6]): approximately 6%
- k+4 (human recombinant AKR1B1 [2]; HNE reduction): 4.7 ± 0.7 min⁻¹
- inhibition type (human recombinant AKR1B1 [2]; L-idose reduction): mixed inhibition type
- k+4/k+2 (%) (human recombinant AKR1B1 [2]; [7]): 0.7 ± 0.3%
- k+4 (human recombinant AKR1B1 [2]; L-idose reduction): 1.4 ± 0.6 min⁻¹
